{"source": "ChEMBL document CHEMBL1201862", "about": "“PubChem BioAssay data set” (2004)", "experiment_in_all_cases": "inhibition of tumour cell growth, NCI panel, 48 h", "key": {"HOP-92": {"tested_on": "HOP-92"}, "A549": {"tested_on": "A549"}, "M19-MEL": {"tested_on": "M19-MEL"}, "OVCAR-8": {"tested_on": "OVCAR-8"}, "SF-295": {"tested_on": "SF-295"}, "SW-620": {"tested_on": "SW-620"}, "SR": {"tested_on": "SR"}, "MCF7": {"tested_on": "MCF7"}, "UACC-62": {"tested_on": "UACC-62"}, "MDA-MB-435": {"tested_on": "MDA-MB-435"}, "786-0": {"tested_on": "786-0"}, "SK-MEL-28": {"tested_on": "SK-MEL-28"}, "MOLT-4": {"tested_on": "MOLT-4"}, "HCT-116": {"tested_on": "HCT-116"}, "LOX IMVI": {"tested_on": "LOX IMVI"}, "NCI-H460": {"tested_on": "NCI-H460"}, "SNB-19": {"tested_on": "SNB-19"}, "SK-MEL-5": {"tested_on": "SK-MEL-5"}, "SN12C": {"tested_on": "SN12C"}, "RPMI-8226": {"tested_on": "RPMI-8226"}, "M14": {"tested_on": "M14"}, "OVCAR-4": {"tested_on": "OVCAR-4"}, "SNB-75": {"tested_on": "SNB-75"}, "ACHN": {"tested_on": "ACHN"}, "HT-29": {"tested_on": "HT-29"}, "Malme-3M": {"tested_on": "Malme-3M"}, "MDA-MB-231": {"tested_on": "MDA-MB-231"}, "DLD-1": {"tested_on": "DLD-1"}, "T47D": {"tested_on": "T47D"}, "HCC 2998": {"tested_on": "HCC 2998"}, "HCT-15": {"tested_on": "HCT-15"}, "K562": {"tested_on": "K562"}, "KM-20L2": {"tested_on": "KM-20L2"}, "MDA-N": {"tested_on": "MDA-N"}, "KM12": {"tested_on": "KM12"}, "SF-268": {"tested_on": "SF-268"}, "NCI/ADR-RES": {"tested_on": "NCI/ADR-RES"}, "XF498": {"tested_on": "XF498"}, "SF-539": {"tested_on": "SF-539"}, "TK-10": {"tested_on": "TK-10"}, "IGROV-1": {"tested_on": "IGROV-1"}, "PC-3": {"tested_on": "PC-3"}, "SK-MEL-2": {"tested_on": "SK-MEL-2"}, "NCI-H226": {"tested_on": "NCI-H226"}, "HL-60": {"tested_on": "HL-60"}, "DU-145": {"tested_on": "DU-145"}, "BT-549": {"tested_on": "BT-549"}, "HOP-62": {"tested_on": "HOP-62"}, "CAKI-1": {"tested_on": "CAKI-1"}, "SK-OV-3": {"tested_on": "SK-OV-3"}, "OVCAR-5": {"tested_on": "OVCAR-5"}, "SNB-78": {"tested_on": "SNB-78"}, "OVCAR-3": {"tested_on": "OVCAR-3"}, "U-251": {"tested_on": "U-251"}, "CCRF-CEM": {"tested_on": "CCRF-CEM"}, "RXF 631": {"tested_on": "RXF 631"}, "NCI-H23": {"tested_on": "NCI-H23"}, "LXFL 529": {"tested_on": "LXFL 529"}, "EKVX": {"tested_on": "EKVX"}, "UACC-257": {"tested_on": "UACC-257"}, "DMS-273": {"tested_on": "DMS-273"}, "HOP-18": {"tested_on": "HOP-18"}, "UO-31": {"tested_on": "UO-31"}, "NCI-H522": {"tested_on": "NCI-H522"}, "RXF 393": {"tested_on": "RXF 393"}, "A498": {"tested_on": "A498"}, "DMS-114": {"tested_on": "DMS-114"}}, "note": "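These data come from cells grown in 96-well plates and exposed to compound for 48 hours at five concentrations. GI50 marks 50% less growth.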 Active and inactive are the calls of the source. No stated cut-off is given here; in the data, active = GI50 up to about 1.1 µM and inactive = higher."}
{"smiles": "COc1cccc2c1C(=O)c1c(O)c3c(c(O)c1C2=O)C[C@@](O)(C(=O)CO)CC3OC1CC(O)C(O)C(C)O1", "note": "(some centres not stated)", "values": [{"measurement": "GI50", "setting": "HOP-92", "result": "0.138 µM (active)"}, {"measurement": "GI50", "setting": "A549", "result": "0.104 µM (active)"}, {"measurement": "GI50", "setting": "M19-MEL", "result": "0.218 µM (active)"}, {"measurement": "GI50", "setting": "OVCAR-8", "result": "0.256 µM (active)"}, {"measurement": "GI50", "setting": "SF-295", "result": "0.104 µM (active)"}, {"measurement": "GI50", "setting": "SW-620", "result": "0.145 µM (active)"}, {"measurement": "GI50", "setting": "SR", "result": "< 0.01 µM (active)"}, {"measurement": "GI50", "setting": "MCF7", "result": "< 0.01 µM (active)"}, {"measurement": "GI50", "setting": "UACC-62", "result": "0.125 µM (active)"}, {"measurement": "GI50", "setting": "MDA-MB-435", "result": "0.834 µM (active)"}, {"measurement": "GI50", "setting": "786-0", "result": "0.103 µM (active)"}, {"measurement": "GI50", "setting": "SK-MEL-28", "result": "0.789 µM (active)"}, {"measurement": "GI50", "setting": "MOLT-4", "result": "0.0202 µM (active)"}, {"measurement": "GI50", "setting": "HCT-116", "result": "0.0553 µM (active)"}, {"measurement": "GI50", "setting": "LOX IMVI", "result": "0.108 µM (active)"}, {"measurement": "GI50", "setting": "NCI-H460", "result": "< 0.01 µM (active)"}, {"measurement": "GI50", "setting": "SNB-19", "result": "0.0822 µM (active)"}, {"measurement": "GI50", "setting": "SK-MEL-5", "result": "0.142 µM (active)"}, {"measurement": "GI50", "setting": "SN12C", "result": "0.115 µM (active)"}, {"measurement": "GI50", "setting": "RPMI-8226", "result": "0.199 µM (active)"}, {"measurement": "GI50", "setting": "M14", "result": "0.361 µM (active)"}, {"measurement": "GI50", "setting": "OVCAR-4", "result": "1.01 µM (active)"}, {"measurement": "GI50", "setting": "SNB-75", "result": "0.167 µM (active)"}, {"measurement": "GI50", "setting": "ACHN", "result": "0.0527 µM (active)"}, {"measurement": "GI50", "setting": "HT-29", "result": "0.354 µM (active)"}, {"measurement": "GI50", "setting": "Malme-3M", "result": "0.141 µM (active)"}, {"measurement": "GI50", "setting": "MDA-MB-231", "result": "0.565 µM (active)"}, {"measurement": "GI50", "setting": "DLD-1", "result": "0.385 µM (active)"}, {"measurement": "GI50", "setting": "T47D", "result": "0.286 µM (active)"}, {"measurement": "GI50", "setting": "HCC 2998", "result": "0.562 µM (active)"}, {"measurement": "GI50", "setting": "HCT-15", "result": 0.397, "unit": "µM"}, {"measurement": "GI50", "setting": "K562", "result": "0.239 µM (active)"}, {"measurement": "GI50", "setting": "KM-20L2", "result": "0.592 µM (active)"}, {"measurement": "GI50", "setting": "MDA-N", "result": "0.562 µM (active)"}, {"measurement": "GI50", "setting": "KM12", "result": "0.35 µM (active)"}, {"measurement": "GI50", "setting": "SF-268", "result": "0.21 µM (active)"}, {"measurement": "GI50", "setting": "NCI/ADR-RES", "result": "1.13 µM (inactive)"}, {"measurement": "GI50", "setting": "XF498", "result": "0.102 µM (active)"}, {"measurement": "GI50", "setting": "SF-539", "result": "< 0.0358 µM (active)"}, {"measurement": "GI50", "setting": "TK-10", "result": "0.792 µM (active)"}, {"measurement": "GI50", "setting": "IGROV-1", "result": "0.333 µM (active)"}, {"measurement": "GI50", "setting": "PC-3", "result": "0.274 µM (active)"}, {"measurement": "GI50", "setting": "SK-MEL-2", "result": "0.608 µM (active)"}, {"measurement": "GI50", "setting": "NCI-H226", "result": "0.0218 µM (active)"}, {"measurement": "GI50", "setting": "HL-60", "result": "0.0267 µM (active)"}, {"measurement": "GI50", "setting": "DU-145", "result": "0.0294 µM (active)"}, {"measurement": "GI50", "setting": "BT-549", "result": "0.279 µM (active)"}, {"measurement": "GI50", "setting": "HOP-62", "result": "0.0146 µM (active)"}, {"measurement": "GI50", "setting": "CAKI-1", "result": "0.185 µM (active)"}, {"measurement": "GI50", "setting": "SK-OV-3", "result": "0.235 µM (active)"}, {"measurement": "GI50", "setting": "OVCAR-5", "result": "0.424 µM (active)"}, {"measurement": "GI50", "setting": "SNB-78", "result": "1.28 µM (inactive)"}, {"measurement": "GI50", "setting": "OVCAR-3", "result": "0.583 µM (active)"}, {"measurement": "GI50", "setting": "U-251", "result": "0.0679 µM (active)"}, {"measurement": "GI50", "setting": "CCRF-CEM", "result": "0.0217 µM (active)"}, {"measurement": "GI50", "setting": "RXF 631", "result": "0.188 µM (active)"}, {"measurement": "GI50", "setting": "NCI-H23", "result": "0.0879 µM (active)"}, {"measurement": "GI50", "setting": "LXFL 529", "result": "0.461 µM (active)"}, {"measurement": "GI50", "setting": "EKVX", "result": "1.72 µM (inactive)"}, {"measurement": "GI50", "setting": "UACC-257", "result": "0.453 µM (active)"}, {"measurement": "GI50", "setting": "DMS-273", "result": "0.033 µM (active)"}, {"measurement": "GI50", "setting": "HOP-18", "result": "0.277 µM (active)"}, {"measurement": "GI50", "setting": "UO-31", "result": "0.421 µM (active)"}, {"measurement": "GI50", "setting": "NCI-H522", "result": "0.211 µM (active)"}, {"measurement": "GI50", "setting": "RXF 393", "result": "0.238 µM (active)"}, {"measurement": "GI50", "setting": "A498", "result": "0.171 µM (active)"}, {"measurement": "GI50", "setting": "DMS-114", "result": "0.188 µM (active)"}]}
